Data: patent US4305944A, “N-[(4-[3-cyano substituted pyridyl]piperazino)alkyl]-azaspirodecanediones” (priority 1980, dated 1981)
Where two headings read alike, the source gives them in different places.

How the values were obtained:
[1] = target: T1, dopamine binding, corpus striatum (Rattus norvegicus, UniProt P61169); test: Test V: receptor binding assay, tritiated spiperone as ligand, dopamine binding assay (psychotropic); conditions: tritiated siperone as ligand, Compound 7: average of two determinations
T1 construct: The corpus striatum of male Sprague-Dawley rats (Charles River Laboratories) is employed as the test tissue; tissue Charles River Laboratories; host or cells: corpus striatum of male Sprague-Dawley rats
From the text: V. Receptor binding assay, IC50 in nM, tritiated siperone as
(§1) Tests V and VI are receptor binding assays which measure the ability of a compound to prevent the binding of a radiolabeled ligand to specific high affinity sites in brain tissue. According to the state of the art, various ligands have been identified with aspects of CNS function or potential for side effects. The ability of a compound to inhibit labeled ligand binding in vitro is considered to be a reflection of the compound's ability to effect the corresponding CNS function or side effect in vivo.
Test V is a dopamine binding assay which reflects neuroleptic activity (Burt, Creese, and Snyder, Molec. Pharmacol. 12:800 (1976); Burt, Creese, and Snyder, Science 196: 326 (1977); Creese, Burt, and Snyder, Science 192: 481 (1976)). The corpus striatum of male Sprague-Dawley rats (Charles River Laboratories) is employed as the test tissue. The radiolabeled ligand is tritiated spiperone. […] Thus, any value less than 1000 nM in Test V represents potential neuroleptic utility.

[2] = tested on: fasted rat; test: Test I: conditioned avoidance response (CAR), fasted rat treated orally (psychotropic); format: in vivo; conditions: for ED50: read-out: CAR-ED50
Experimental: I. CAR-ED50 (mg/kg. of body weight) fasted rat
treated orally (psychotropic).
Tests I and II refer to the conditioned avoidance response. […] Test I is a modification of the same conditioned avoidance response test except that fasted rats were employed and the animals were treated orally.

[3] = target: T2, alpha-adrenergic receptor (Rattus norvegicus, UniProt P43140); test: Test VII: alpha-adrenergic receptor blocking action in vitro, isolated rat seminal vesicle, 1-norepinephrine as spasmogen
T2 sequence (P43140 1-466): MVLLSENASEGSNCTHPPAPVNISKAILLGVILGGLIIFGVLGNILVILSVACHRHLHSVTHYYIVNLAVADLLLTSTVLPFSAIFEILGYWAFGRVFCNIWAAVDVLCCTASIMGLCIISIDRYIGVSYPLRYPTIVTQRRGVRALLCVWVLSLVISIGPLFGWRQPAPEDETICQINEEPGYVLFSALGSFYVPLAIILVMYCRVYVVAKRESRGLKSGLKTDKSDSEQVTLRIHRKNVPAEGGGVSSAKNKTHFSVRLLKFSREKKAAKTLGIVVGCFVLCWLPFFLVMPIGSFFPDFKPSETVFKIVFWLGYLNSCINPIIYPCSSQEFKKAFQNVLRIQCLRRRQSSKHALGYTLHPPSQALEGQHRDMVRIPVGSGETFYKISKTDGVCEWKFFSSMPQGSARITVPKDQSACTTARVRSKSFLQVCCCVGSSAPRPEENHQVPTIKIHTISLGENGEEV
From the text: (§3) IC50 (mcg/ml) alpha-adrenergic receptor blocking action
(§4) in vitro - rat seminal vesicle - 1-norepinephrine
(§5) Test VII is an in vitro measurement of alpha-adrenergic receptor blocking action employing the isolated seminal vesicle of the rat. […] A low value represents high activity.

[4] = Test III: spontaneous motor activity, activity cage mouse treated orally (CNS depression); conditions: in vivo, po
From the text: (§6) AED-0.3 (mg/kg. of body weight) activity cage
mouse treated orally (CNS depression).
(§7) Test IV involves measurement of spontaneous motor activity of mice as a reflection of the CNS depressant or sedative side effects of the test compound. […] The AED-0.3 reflects approximately 50% reduction in spontaneous motor activity.

[5] = tested on: mouse; test: Test IV: spontaneous motor activity, activity cage mouse treated intraperitoneally (CNS depression); format: in vivo; conditions: in words; mouse
From the text: (§8) AED-0.3 (mg/kg. of body weight) activity cage,
as §7

[6] = as above; format: in vivo; conditions: in vivo, ip
From the text: as §8, §7

[7] = tested on: fed rat; test: Test II: conditioned avoidance response (CAR), fed rat treated intraperitoneally (psychotropic); format: in vivo; conditions: for activity in the conditioned avoidance response test (Test II): in words; for ED50: ip, read-out: CAR-ED50
Experimental: Tests I and II refer to the conditioned avoidance response. Data with respect to Test II were obtained by the method described in the above Wu, et al. patents and publications in which trained rats were maintained on a standard laboratory diet and were treated intraperitoneally with the test drug. Test I is a modification of the same conditioned avoidance response test except that fasted rats were employed and the animals were treated orally.

[8] = target: T2, alpha-adrenergic receptor
From the text: as §3, §4, §5

[9] = target: alpha-adrenergic receptors in the cerebral cortex; test: Test VI: receptor binding assay, tritiated WB-4101 as ligand (alpha-adrenergic blockade); parameters: species or system rat; conditions: for IC50: Test VI, tritiated WB-4101 as ligand, rat cerebral cortex, in excess of 100 nM is considered inactive
From the text: as §1

[10] = in vivo; conditions: mouse, po
From the text: as §6
mouse treated orally (CNS depression).
as §7

[11] = tested on: rat; test: rat catalepsy test; format: in vivo; conditions: for rat catalepsy test result: oral doses of 200 mg/kg.
Experimental: (§2) That dose of Compound No. 7, however, constituted the ALD50 dose for rats. In mice the ALD50 of Compound No. 7 was determined to be 500 mg/kg. of body weight.

[12] = tested on: mouse; test: Test III: spontaneous motor activity, activity cage mouse treated orally (CNS depression); conditions: in words; for sedative action (Tests III and IV): oral and intraperitoneal
From the text: as §6
mouse treated orally (CNS depression).
as §7

[13] = ALD50 for rats; conditions: rat, in vivo, oral dose of the catalepsy test
Experimental: as §2

[14] = ALD50 in mice; conditions: mouse, in vivo
Experimental: as §2

[15] = Test IV, activity cage mouse, intraperitoneal, reflects approximately 50% reduction in spontaneous motor activity, read-out: AED-0.3
[16] = Test II, fed rat, intraperitoneal

T1 sequence (P61169 whole entry): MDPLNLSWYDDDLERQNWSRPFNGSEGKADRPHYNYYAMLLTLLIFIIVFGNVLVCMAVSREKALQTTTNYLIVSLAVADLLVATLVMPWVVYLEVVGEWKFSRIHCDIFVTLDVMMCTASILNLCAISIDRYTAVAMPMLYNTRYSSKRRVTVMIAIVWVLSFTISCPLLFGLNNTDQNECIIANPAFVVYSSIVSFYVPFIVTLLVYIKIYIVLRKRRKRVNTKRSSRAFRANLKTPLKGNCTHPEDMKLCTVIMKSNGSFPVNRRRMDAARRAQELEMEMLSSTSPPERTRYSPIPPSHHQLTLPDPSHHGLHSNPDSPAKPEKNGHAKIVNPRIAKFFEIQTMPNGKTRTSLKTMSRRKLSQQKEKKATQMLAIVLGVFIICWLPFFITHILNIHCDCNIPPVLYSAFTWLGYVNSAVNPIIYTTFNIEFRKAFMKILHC

SMILES | ED50 ([2]; Test I, fasted rat, oral) [mg/kg] | IC50 [3] [nM] | ED50 [4] [mg/kg] | ED50 [6, 15] [mg/kg] | ED50 [7, 16] [mg/kg] | IC50 [9] [nM] | rat catalepsy test result [11] | also measured
CC1CN(c2ncccc2C#N)CCN1CCCCN1C(=O)CC2(CCCC2)CC1=O (centres unmarked) [compound 5, 2-[4-[4-(7,9-Dioxo-8-azaspiro[4.5]decan-8-yl)butyl]-3-methyl-1-piperazinyl]pyridine-3-carbonitrile] | 85 | – | – | – | – | – | – | IC50 [1]: 400 nM
COc1cccc(N2CCN(CCCN3C(=O)CC4(CCCC4)CC3=O)CC2)n1 [Compound No. 2] | – | 182 | 82 | 7.4 | > 50 | 48 | – | activity by intraperitoneal route (Test IV) relative to oral route (Test III) [5]: several-fold stronger activity; activity in the conditioned avoidance response test (Test II) ([7]; fed rat, intraperitoneal): very substantially less active; alpha-adrenergic blocking agent (Tests VI and VII) [8]: relatively strong
O=C1CC2(CCCC2)CC(=O)N1CCCCN1CCN(c2ncccn2)CC1 [Compound No. 6, buspirone] | 48 | – | – | – | 4.3 | – | inactive | ED50 ([6]; mouse): 33 mg/kg; ED50 [10]: 92 mg/kg
N#Cc1cccnc1N1CCN(CCCCN2C(=O)CC3(CCCC3)CC2=O)CC1 [Compound No. 4, 2-[4-[4-(7,9-Dioxo-8-azaspiro[4.5]decan-8-yl)butyl]-1-piperazinyl]pyridine-3-carbonitrile] | 24 | – | 97 | – | – | 360 | inactive | potency in Test III (sedative action) ([12]; oral): low potency; sedative action (Tests III and IV) [12]: lack of sedative action; potency in Test I (neuroleptic action) ([2]; in words, fasted rat, oral): good potency; potency in Test VI (alpha-adrenergic blocking action) ([9]; in words): low potency
COc1cccnc1N1CCN(CCCCN2C(=O)CC3(CCCC3)CC2=O)CC1 [Compound No. 7] | 55 | – | – | – | – | 65 | inactive | LD50 [13]: 200 mg/kg; LD50 [14]: 500 mg/kg; IC50 [1]: 100 nM
O=C1CC2(CCCC2)CC(=O)N1CCCCN1CCN(c2ccccn2)CC1 [Compound No. 3] | 34 | 871 | 10 | 2.6 | 2.8 | 280 | – | sedative action (Tests III and IV) [12]: high; activity by intraperitoneal route (Test IV) relative to oral route (Test III) [5]: several-fold stronger activity
O=C1CC2(CCCC2)CC(=O)N1CCN1CCN(c2ccccn2)CC1 [compound 1] | – | 5830 | – | 41 | 22.6 | – | – | activity in the conditioned avoidance response test (Test II) ([7]; fed rat, intraperitoneal): very substantially less active
CN(C)CCCN1c2ccccc2Sc2ccc(Cl)cc21 [Chlorpromazine, chlorpromazine] | – | – | – | 3.6 | – | 31 | – | alpha-adrenergic blocking activity ([3]; in words, rat seminal vesicle): strong; ED50 ([7]; Rattus norvegicus): 4.8 mg/kg; ED50 ([2]; Rattus norvegicus, po): 39 mg/kg; ED5 in the rat catalepsy test [11]: 4.1 mg/kg
